These results are taken from ChEMBL document CHEMBL1132671, “The synthesis of a new class of oxytocin antagonists” (Bioorg Med Chem Lett, 1999).

For assay [1], the species on record is Rattus norvegicus. The experiment in a line: Dose inhibiting the response of a dose of oxytocin to half of the response in rat. The assay is classed as functional. Conditions: for ED50: Rattus norvegicus, read-out: ID50 (the source's name).
The target in the next assay is T1, Oxytocin receptor (Homo sapiens, UniProt P30559).
T1 sequence (P30559 whole entry): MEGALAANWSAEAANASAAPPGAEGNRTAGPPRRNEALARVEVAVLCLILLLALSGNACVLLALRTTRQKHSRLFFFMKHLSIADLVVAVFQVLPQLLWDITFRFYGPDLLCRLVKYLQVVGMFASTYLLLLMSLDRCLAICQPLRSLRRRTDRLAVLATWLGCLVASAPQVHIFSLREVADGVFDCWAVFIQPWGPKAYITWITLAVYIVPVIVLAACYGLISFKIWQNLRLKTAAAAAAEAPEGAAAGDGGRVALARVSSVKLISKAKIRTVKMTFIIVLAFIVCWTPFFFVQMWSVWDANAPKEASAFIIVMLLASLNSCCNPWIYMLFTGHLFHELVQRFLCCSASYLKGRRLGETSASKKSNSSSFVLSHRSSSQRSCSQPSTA
The experiment in a line: […] antagonistic activity against cloned human oxytocin receptor over-expressed in a stable HEK293 cell line. The assay is classed as functional.

For assay [2], the species on record is Rattus norvegicus. The experiment in a line: Dose inhibiting the response of a dose of oxytocin to half of the response in rat;NA means no activity. It counts as functional, organism-based.

Activity calls are given as the source filed them. The calls are words filed in the database; no cut-off is given here.

As for `CC[C@@H](C)[C@@H]1NC(=O)[C@H]([C@@H](C)CC)NC(=O)[C@@H](Cc2c[nH]c3ccccc23)NC(=O)CCSCC[C@@H](C(=O)N(C)[C@@H](CCCN)C(N)=O)NC(=O)[C@H](CC(N)=O)NC1=O`, the ED50 in the assay listed under Rattus norvegicus [1] came to 0.0029 µmol/kg. Turning to `CC[C@@H](C)[C@@H]1NC(=O)[C@H]([C@@H](C)CC)NC(=O)[C@@H](Cc2c[nH]c3ccccc23)NC(=O)CCCSCC(CCCN)NC(=O)[C@H](CC(N)=O)NC1=O` (single isomer, unassigned), in the assay listed under Rattus norvegicus [1], the ID50 was found to be 32 nmol/kg. This molecule gave a Ki on Oxytocin receptor of 26 nM. For the molecule `CC[C@@H](C)[C@@H]1NC(=O)[C@H]([C@@H](C)CC)NC(=O)[C@@H](Cc2c[nH]c3ccccc23)NC(=O)CCCSCC(CCCCN)NC(=O)[C@H](CC(N)=O)NC1=O` (single isomer, unassigned), the ED50 in the assay filed under Rattus norvegicus [1] came to 0.017 µmol/kg. Also, affinity at Oxytocin receptor was put at a Ki of 2.8 nM.

Turning to `CC[C@@H](C)[C@@H]1NC(=O)[C@H]([C@@H](C)CC)NC(=O)[C@@H](Cc2c[nH]c3ccccc23)NC(=O)CCSCC[C@@H](C(N)=O)NC(=O)[C@H](CC(N)=O)NC1=O`, in the assay filed under Rattus norvegicus [1], the ED50 was 0.048 µmol/kg. `CC[C@@H](C)[C@@H]1NC(=O)[C@H]([C@@H](C)CC)NC(=O)[C@@H](Cc2c[nH]c3ccccc23)NC(=O)CCCSC[C@H](CCCN)NC(=O)[C@H](CC(N)=O)NC1=O` gave an ID50 in the assay filed under Rattus norvegicus [1] of 5.4 nmol/kg. In addition, the Ki at Oxytocin receptor worked out at 4 nM. As for `CC[C@@H](C)[C@@H]1NC(=O)[C@H]([C@@H](C)CC)NC(=O)[C@@H](Cc2c[nH]c3ccccc23)NC(=O)CCCSCC2CCCN2C(=O)[C@H](CC(N)=O)NC1=O` (single isomer, unassigned), the ID50 result in the assay filed under Rattus norvegicus [2] was “inactive”. The Ki at Oxytocin receptor worked out at 1000 nM.

As usually defined, the Ki is a dissociation constant, usually derived from enzyme kinetics or from competition with a known ligand.
